Assay: Analysis of radioactivity in the formulations: trans/cis isomer content
Assay type: physicochemical
Details: 14C radioactivity in formulation extracts
Excerpt: The different degree of isomerization could be explained by the extent of light exposure during the preparation of the cream and/or during the extraction procedure in the course of the series of experiments.

“[phenyl-^14C]-resveratrol [^14C-Resveratrol stock solution]” gave a Resveratrol cis isomer of 0% and a Resveratrol trans-isomer of 100%.

— patent US20130315848A1, “COSMETIC COMPOSITION FOR SKIN WHITENING COMPRISING RESVERATROL” (DSM IP ASSETS B.V., priority 2010, published 2013)
